Read-outs that look alike come from different tables or passages of the source.
Key:
[1] = system: ventricular extrasystoles; experiment: Anti-arhythmic action in the rat (aconitine-induced ventricular extrasystoles); type: in vivo; conditions: read-out: Percentage of protection (percentage increase in the aconitine dose necessary to initiate the ventricular extrasystoles); for change in vivo at 5 mg/kg / change in vivo at 1 mg/kg: iv; for change in vivo at 25 mg/kg: po, 1 h
Procedure: Male rats weighing 300-350 g, anaesthetized by intraperitoneal route with 1.20 g/kg of urethane, were tracheotomized and subjectd to artificial respiration (40-50 insufflations of 3 ml/minute). Needles were implanted under the skin to record the electrocardiogram of the rats on reception of the DII signal. The test products were administered intravenously or orally. After five minutes in the case of intravenous administration and one hour in the case of oral administration, the jugular vein of the rats was perfused with 10 micrograms/minutes under 0.21 ml of an aconitine solution and the time taken for the first ventricular extrasystoles to appear was noted. The amount of aconitine perfused was calculated, then expressed as a function of the body weight of the animal.
The percentage increase in the aconitine dose necessary to initiate the ventricular extrasystoles after treatment was calculated relative to the control animals.

[2] = system: mouse; experiment: Acute toxicity, oral, mouse; type: in vivo
Procedure: The lethal doses LD0 of the various compounds tested were evaluated after oral administration to a mouse. […]

[3] = system: caudal artery; experiment: Test for anti-calcic activity in vitro, isolated caudal artery of the rat (contraction induced by calcium chloride); type: cell-based; conditions: caudal artery rings of Wistar rats, depolarizing solution KCl 100 mM, CaCl2 2.5 mM, phentolamine 10^-5 M, 37° C., read-out: IC50 (concentration which inhibited by 50% the contraction induced by calcium chloride)
Procedure: Isolated caudal artery of the rat.
When the contractile responses became reproducible, the test product was added in increasing concentrations 15 minutes before each contraction.

[4] = system: blood-platelets; experiment: Blood-platelet aggregation, in vitro, on plasma rich in blood-platelets (PRP); type: cell-based; conditions: Oryctolagus cuniculus, 2 min, rabbit PRP, 2 minutes incubation
Description: 3) Test for the Activity of Anti-Aggregation of Blood-Platelets. Blood-Platelet Aggregation, in Vitro, on Plasma Rich in Blood-Platelets (PRP)
Measurement of blood-platelet aggregation was made according to the turbidimetric method of Born et al 1963, J. Physiol., Vol. 168, p. 178. Rabbit's blood was removed on Na citrate at 3.2% of cardiac puncture and the plasma rich in blood-platelets was obtained by centrifuging and adjustment of the number of blood-platelets to […]. The aggregation was induced by collagen (40 micrograms per ml of PRP) or PAF acether (0.05 micromoles per liter of PRP). The test compounds were incubated at different concentrations in the PRP 2 minutes before the aggregating agent. The results are expressed in IC50 (concentration inhibiting the aggregation by 50% relative to the control curves).

[5] = PAF acether 0.05 micromoles per liter of PRP, read-out: IC50, induction by PAF ACETHER (concentration inhibiting the aggregation by 50%)
[6] = collagen 40 micrograms per ml of PRP, read-out: IC50, induction by COLLAGEN (concentration inhibiting the aggregation by 50%)

| Compound | change in vivo at 5 mg/kg [1] [%] | LD0 (maximum dose which did not cause any deaths over 8 days) [2] [mg/kg] | IC50 [3] [µM] | IC50 [4, 5] [µM] | IC50 [4, 6] [µM] | change in vivo at 25 mg/kg [1] [%] | change in vivo at 1 mg/kg [1] [%] |
| --- | --- | --- | --- | --- | --- | --- | --- |
| CON=C(c1ccccc1OCC(O)CNC(C)(C)C)c1cccc2[nH]ccc12 (racemic) [Example 25, (±) O-methyloxime of [2-[3-[(2,2-dimethylethyl)-amino]-2-hydroxypropoxy]-phenyl]-(1H-indol-4-yl) methanone] | 186 | – | – | – | – | – | – |
| CC(C)(C)NCCCOc1ccccc1C(O)c1cccc2[nH]ccc12 (stereo not drawn) [Example 7, α-[2-[3-[(1,1-dimethylethyl)-amino]-propoxy]-phenyl]-1H-indol-4-methanol benzoate] | > 201 | 100 | – | – | – | – | – |
| CC(C)(C)NCCOc1ccccc1C(=O)c1cccc2[nH]ccc12 [Example 16, [2-[2-[(1,1-dimethylethyl)-amino]-ethoxy]-phenyl]-(1H-indol-4-yl)-methanone] | – | – | 1.1 | 100 | 57 | – | – |
| CC(C)(C)NCC(O)COc1ccccc1C(O)c1cccc2[nH]ccc12 (single isomer, unassigned; isomer b) [Example 9, α-[2-[3-[(1,1-dimethylethyl)-amino]-2-hydroxy-propoxy]-phenyl]-1H-indole-4-methanol benzoate (Isomer B)] | > 165 | > 200 | – | – | – | 91 | – |
| Cn1ccc2c(C(O)c3ccccc3OCCCNC(C)(C)C)cccc21 (racemic) [Example 13, (±) α-[2-[3-[(1,1-dimethylethyl)-amino]-propoxy]-phenyl-1-methyl-1H-indol-4-methanol] | 140 | – | – | 70 | 60 | – | – |
| CC(C)(C)NCCCOc1ccc(C(=O)c2cccc3[nH]ccc23)cc1 [Example 1, [4-[3-[(1,1-dimethyl-ethyl)-amino]-propoxy]-phenyl]-(1H-indol-4-yl)-methanone] | – | – | 0.46 | – | – | – | – |
| CC(C)(C)NCC(O)COc1ccccc1C(O)c1cccc2[nH]ccc12 (single isomer, unassigned) [Example 8, α-[2-[3-[(1,1-dimethylethyl)-amino]-2-hydroxy-propoxy]-phenyl]-1H-indole-4-methanol benzoate] | – | > 200 | – | – | – | – | – |
| O=C(c1ccccc1OCC(O)CNC1CCCCC1)c1cccc2[nH]ccc12 (racemic) [Example 21, (±) [2-[(3-cyclohexylamino)-2-hydroxylpropoxy]-phenyl]-(1H-indol-4-yl) methanone] | 124 | – | – | – | – | – | – |
| CC(C)(C)NCC(O)COc1ccccc1C(=O)c1cccc2[nH]ccc12 (stereo not drawn) [Example 4, [2-[3-[(1,1-dimethyl ethyl)-amino]-2-hydroxypropoxy]-phenyl]-(1H-indol-4-yl)-methanone] | > 217 | – | 6.2 | 55 | 9.5 | 73 | – |
| Cn1ccc2c(C(=O)c3ccccc3OCCCNC(C)(C)C)cccc21 [Example 12, [2-[3-[(1,1-dimethylethyl)-amino]-propoxy]-phenyl]-(1-methyl-1H-indol-4-yl)methanone] | – | – | 4.8 | 40 | 40 | – | 99 |
| CN1CCN(CC(O)COc2ccccc2C(=O)c2cccc3[nH]ccc23)CC1 (racemic) [Example 19, (±) [2-[2-hydroxy-3-(4-methyl-1-piperazinyl)-propoxy]-phenyl]-(1H-indol-4-yl) methanone] | 142 | – | – | – | – | – | – |
| CC(C)(C)NCCCOc1ccccc1C(=O)c1cccc2[nH]ccc12.O=C(O)c1ccccc1 [Example 3, [2-[3-[(1,1-dimethyl ethyl)-amino]-propoxy]-phenyl]-(1H-indol-4-yl)-methanone benzoate] | 202 | 100 | 1.9 | 47 | 31 | 52 | – |
| Cn1ccc2c(Cc3ccccc3OCC(O)CNC(C)(C)C)cccc21 (racemic) [Example 11, (±) 1-[(1,1-dimethylethyl)-amino]-3-[2-[(1-methyl-1H-indol-4-yl)-methyl]-phenoxy]-2-propanol] | 257 | – | 3 | 24 | 10 | 81 | – |
| CC(c1ccccc1OCC(O)CNC(C)(C)C)c1cccc2[nH]ccc12 (racemic) [Example 23, (±) 3-[(1,1-dimethylethyl)-amino]-1-[2-[1-(1H-indol-4-yl)-ethyl]-phenoxy]-2-propanol] | 88 | – | 4.7 | 25 | 8 | – | – |
| Cn1ccc2c(C(=O)c3ccccc3OCC(O)CNC(C)(C)C)cccc21 (racemic) [Example 10, (±)[2-[3-[(1,1-dimethylethyl)-amino]-2-hydroxy-propoxy]-phenyl]-(1-methyl-1H-indol-4-yl) methanone] | – | – | – | 70 | 21 | 124 | 133 |
| CC(C)(C)NCC(O)COc1ccccc1Cc1cccc2[nH]ccc12 (stereo not drawn) [Example 5, 1-[(1,1-dimethyl-ethyl)-amino]-3-[2-[(1H-indol-4-yl)-methyl]-phenoxy]-2-propanol] | – | > 200 | 2 | 42 | 18 | – | – |
| CC(C)(C)NCCCOc1ccccc1Cc1cccc2[nH]ccc12 [Example 6, N-(1,1-dimethylethyl)-3-[2-[(1H-indol-4-yl)-methyl]-phenoxy]-propanamine benzoate] | – | – | 0.4 | 37 | 14 | – | – |
| CC(C)N(CC(O)COc1ccccc1C(=O)c1cccc2[nH]ccc12)C(C)C (racemic) [Example 18, (±) [2-[3-[[bis-1-methylethyl)-amino]-2-hydroxy-propoxy]-phenyl]-(1H-indol-4-yl) methanone] | 135 | – | 7.2 | – | – | – | – |
| C=C(c1ccccc1OCC(O)CNC(C)(C)C)c1cccc2[nH]ccc12 (racemic) [Example 22, (±) 3-[(1,1-dimethylethyl)-amino]-[2-[1-(1H-indol-4-yl)-ethenyl]-phenoxy]-2-propanol] | 84 | 200 | 3.8 | 14 | 9 | 33 | – |
| C=C(c1ccccc1OCCCNC(C)(C)C)c1cccc2[nH]ccc12 [Example 24] | – | – | 3.1 | 14 | 8 | – | – |
| CC(C)(C)NCC(O)COc1ccccc1C(=O)c1cccc2c1CC(=O)N2 (stereo not drawn) [Example 15, 1,3-dihydro-4-[2-[3-[(1,1-dimethylethyl)-amino]-2-hydroxy-propoxy]-benzoyl]-2H-indol-2-one] | – | > 200 | – | – | – | – | – |
| CC(C)(C)NCC(O)COc1ccc(C(=O)c2cccc3[nH]ccc23)cc1 (stereo not drawn) [Example 2, [4-[3-[(1,1-dimethyl ethyl)-amino]-2-hydroxypropoxy]-phenyl]-(1H-indol-4-yl)-methanone] | 93 | – | 1.9 | – | – | 82 | – |

Reference: US5086070A, “4-benzyl-1H-indoles and anti-arrthymic use thereof” (Roussel Uclaf, priority 1989, dated 1992)
